Test results reported in ChEMBL document CHEMBL1201862, “PubChem BioAssay data set” (2004).
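Where inhibition never reached the appropriate level, the endpoint shown equals the highest concentration tested. Otherwise, values were interpolated linearly from a five-concentration, 48-hour dose response in 96-well plates. GI50: concentration for 50% inhibition of growth.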 Active and inactive are the calls of the source. Rule as the data show it: active = GI50 up to about 1.1 µM and inactive = higher.

Experiments:
Test in all cases: NCI anticancer screen, dose series, 48 h
[1] = test system: RXF 631
[2] = test system: M19-MEL
[3] = test system: LXFL 529
[4] = test system: DMS-273
[5] = test system: XF498
[6] = test system: SNB-78

Measured: GI50

CCOC(=O)COS(=O)(=O)C(F)(F)F
inactive: [1] 45.1 µM | [2] > 100 µM | [3] 89.9 µM | [4] 18.4 µM | [5] > 100 µM | [6] > 100 µM

CC1C(O)=C(O)c2ccccc2N1O (stereo not drawn)
inactive: [1] > 100 µM | [2] > 100 µM | [3] > 100 µM | [4] > 100 µM | [5] > 100 µM | [6] > 100 µM

Cn1c2c(c3ccccc31)C1CCCCC1C1C(=O)NC(=O)C21 (stereo not drawn)
inactive: [1] 41.4 µM | [2] 58.3 µM | [3] > 100 µM | [4] > 10 µM | [5] 44.7 µM | [6] > 100 µM
